ChEMBL document CHEMBL1201861, “Genomics of Drug Sensitity in Cancer screening data, Wellcome Trust Sanger Institute”

How the values were obtained:
Assay in all cases: cells
COLO-792 = format: functional, cell-based, Homo sapiens; settings: Homo sapiens, COLO-792
Description: SANGER: Inhibition of human COLO-792 cell growth in a cell viability assay.

CP50-MEL-B = format: functional, cell-based, Homo sapiens; settings: Homo sapiens, CP50-MEL-B;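 note: growth inhibition of the human cell line, measured with a cell viability read-out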
Description: SANGER: Inhibition of human CP50-MEL-B cell growth in a cell viability assay.

CW-2 = format: functional, cell-based, Homo sapiens; settings: Homo sapiens, CW-2;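 note: growth inhibition of CW-2 cells, read out by a cell viability assay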
Description: SANGER: Inhibition of human CW-2 cell growth in a cell viability assay.

Ca-Ski = format: functional, cell-based; settings: Homo sapiens;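 note: cell viability assay measuring inhibition of Ca-Ski cell growth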
Description: SANGER: Inhibition of human Ca-Ski cell growth in a cell viability assay.

Calu-6 = format: functional, cell-based, Homo sapiens; settings: Homo sapiens, Calu-6;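 note: growth of human Calu-6 cells, read out by a cell viability assay, IC50 marking inhibition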
Description: SANGER: Inhibition of human Calu-6 cell growth in a cell viability assay.

Capan-2 = format: functional, cell-based, Homo sapiens; settings: Homo sapiens, Capan-2;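 note: Capan-2 cell growth inhibition, read out with a viability assay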
Description: SANGER: Inhibition of human Capan-2 cell growth in a cell viability assay.

DOHH-2 = format: functional, cell-based; settings: Homo sapiens;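 note: growth inhibition of human DOHH-2 cells, read out with a cell viability assay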
Description: SANGER: Inhibition of human DOHH-2 cell growth in a cell viability assay.

Detroit 562 = format: functional, cell-based, Homo sapiens; settings: Homo sapiens, Detroit 562;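 note: growth inhibition of human Detroit 562 cells, read out by a cell viability assay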
Description: SANGER: Inhibition of human Detroit562 cell growth in a cell viability assay.

EW-24 = format: functional, cell-based; settings: Homo sapiens;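 note: human EW-24 cancer cell line, growth inhibition read out via a cell viability assay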
Description: SANGER: Inhibition of human EW-24 cell growth in a cell viability assay.

HCC1569 = format: functional, cell-based, Homo sapiens; settings: Homo sapiens, HCC1569;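 note: growth inhibition of human HCC1569 cells, read out with a cell viability assay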
Description: SANGER: Inhibition of human HCC1569 cell growth in a cell viability assay.

HCC2218 = format: functional, cell-based; settings: Homo sapiens;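 note: cell viability assay read-out, with IC50 given as the concentration that inhibits growth of the cell line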
Description: SANGER: Inhibition of human HCC2218 cell growth in a cell viability assay.

HCC 2998 = format: functional, cell-based, Homo sapiens; settings: Homo sapiens, HCC 2998;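 note: growth inhibition of human HCC2998 cells, measured with a cell viability read-out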
Description: SANGER: Inhibition of human HCC2998 cell growth in a cell viability assay.

HD-MY-Z = format: functional, cell-based, Homo sapiens; settings: Homo sapiens, HD-MY-Z;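 note: growth inhibition of HD-MY-Z cells, read out with a cell viability assay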
Description: SANGER: Inhibition of human HD-MY-Z cell growth in a cell viability assay.

HO-1-N-1 = format: functional, cell-based, Homo sapiens; settings: Homo sapiens, HO-1-N-1;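 note: growth inhibition of human HO-1-N-1 cells, read out with a cell viability assay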
Description: SANGER: Inhibition of human HO-1-N-1 cell growth in a cell viability assay.

HOP-62 = format: functional, cell-based, Homo sapiens; settings: Homo sapiens, HOP-62;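 note: cell growth inhibition determined with a viability assay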
Description: SANGER: Inhibition of human HOP-62 cell growth in a cell viability assay.

HT-1080 = format: functional, cell-based, Homo sapiens; settings: Homo sapiens, HT-1080
Description: SANGER: Inhibition of human HT-1080 cell growth in a cell viability assay.

IGROV-1 = format: functional, cell-based, Homo sapiens; settings: Homo sapiens, IGROV-1;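 note: reduction of IGROV-1 cell growth, read out with a viability assay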
Description: SANGER: Inhibition of human IGROV-1 cell growth in a cell viability assay.

IST-SL1 = format: functional, cell-based, Homo sapiens; settings: Homo sapiens, IST-SL1;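 note: growth inhibition of human IST-SL1 cells, read out with a cell viability assay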
Description: SANGER: Inhibition of human IST-SL1 cell growth in a cell viability assay.

JAR = format: functional, cell-based, Homo sapiens; settings: Homo sapiens, JAR;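 note: growth inhibition of human JAR cells determined with a cell viability assay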
Description: SANGER: Inhibition of human JAR cell growth in a cell viability assay.

KALS-1 = format: functional, cell-based, Homo sapiens; settings: Homo sapiens, KALS-1;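 note: growth inhibition of KALS-1 cells, determined with a cell viability assay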
Description: SANGER: Inhibition of human KALS-1 cell growth in a cell viability assay.

KINGS-1 = format: functional, cell-based, Homo sapiens; settings: Homo sapiens, KINGS-1;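 note: cell viability assay measuring suppression of KINGS-1 cell growth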
Description: SANGER: Inhibition of human KINGS-1 cell growth in a cell viability assay.

KS-1 = format: functional, cell-based, Homo sapiens; settings: Homo sapiens, KS-1;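 note: growth inhibition of KS-1 cells, read out with a cell viability assay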
Description: SANGER: Inhibition of human KS-1 cell growth in a cell viability assay.

KYSE-510 = format: functional, cell-based, Homo sapiens; settings: Homo sapiens, KYSE-510;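 note: cell viability readout used to measure how strongly growth of the cell line is suppressed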
Description: SANGER: Inhibition of human KYSE-510 cell growth in a cell viability assay.

LB2518-MEL = format: functional, cell-based, Homo sapiens; settings: Homo sapiens, LB2518-MEL;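 note: growth inhibition of human LB2518-MEL cells, measured with a cell viability assay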
Description: SANGER: Inhibition of human LB2518-MEL cell growth in a cell viability assay.

LS-411N = format: functional, cell-based, Homo sapiens; settings: Homo sapiens, LS-411N
LXF-289 cell line = format: functional, cell-based, Homo sapiens; settings: Homo sapiens, LXF-289
Description: SANGER: Inhibition of human LXF-289 cell growth in a cell viability assay.

MLMA = format: functional, cell-based, Homo sapiens; settings: Homo sapiens, MLMA;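 note: growth inhibition of MLMA cells (human), determined through a cell viability readout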
Description: SANGER: Inhibition of human MLMA cell growth in a cell viability assay.

MZ7-mel = format: functional, cell-based, Homo sapiens; settings: Homo sapiens, MZ7-mel;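 note: growth inhibition of human MZ7-mel cells, measured by a cell viability assay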
Description: SANGER: Inhibition of human MZ7-mel cell growth in a cell viability assay.

Mo = format: functional, cell-based; settings: Homo sapiens
Description: SANGER: Inhibition of human Mo-T cell growth in a cell viability assay.

NCI-H1395 = format: functional, cell-based, Homo sapiens; settings: Homo sapiens, NCI-H1395;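 note: cell viability assay read-out quantifying reduced proliferation of human NCI-H1395 cells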
Description: SANGER: Inhibition of human NCI-H1395 cell growth in a cell viability assay.

NCI-H1623 = format: functional, cell-based, Homo sapiens; settings: Homo sapiens, NCI-H1623;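 note: cell viability assay used as the read-out for growth inhibition of NCI-H1623 cells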
Description: SANGER: Inhibition of human NCI-H1623 cell growth in a cell viability assay.

NCI-H1651 = format: functional, cell-based, Homo sapiens; settings: Homo sapiens, NCI-H1651;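 note: Read-out is a cell viability assay, with IC50 expressing inhibition of NCI-H1651 cell growth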
Description: SANGER: Inhibition of human NCI-H1651 cell growth in a cell viability assay.

NCI-H2126 = format: functional, cell-based, Homo sapiens; settings: Homo sapiens, NCI-H2126;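 note: growth inhibition of the cancer cell line, determined with a cell viability readout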
Description: SANGER: Inhibition of human NCI-H2126 cell growth in a cell viability assay.

NCI-H661 = format: functional, cell-based, Homo sapiens; settings: Homo sapiens, NCI-H661;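 note: cell viability assay read-out, IC50 being the concentration that inhibits growth of the cells by half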
Description: SANGER: Inhibition of human NCI-H661 cell growth in a cell viability assay.

SNU-5 = format: functional, cell-based; settings: Homo sapiens;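 note: cell viability readout used to measure growth inhibition in human NCI-SNU-5 cells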
Description: SANGER: Inhibition of human NCI-SNU-5 cell growth in a cell viability assay.

OE19 = format: functional, cell-based, Homo sapiens; settings: Homo sapiens, OE19;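 note: growth inhibition of OE19 cells, measured through a cell viability read-out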
Description: SANGER: Inhibition of human OE19 cell growth in a cell viability assay.

PC-3 = format: functional, cell-based, Homo sapiens; settings: Homo sapiens, PC-3;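 note: cell viability assay measuring growth inhibition of PC-3 cells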
Description: SANGER: Inhibition of human PC-3 cell growth in a cell viability assay.

RCM-1 = format: functional, cell-based, Homo sapiens; settings: Homo sapiens, RCM-1;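 note: growth inhibition of the RCM-1 line, determined with a cell viability readout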
Description: SANGER: Inhibition of human RCM-1 cell growth in a cell viability assay.

SK-MEL3 = format: functional, cell-based, Homo sapiens, SK-MEL-3; settings: Homo sapiens, SK-MEL3;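 note: growth inhibition of human SK-MEL-3 cells, read out with a cell viability assay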
Description: SANGER: Inhibition of human SK-MEL-3 cell growth in a cell viability assay.

SK-NEP-1 = format: functional, cell-based; settings: Homo sapiens;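 note: growth inhibition of human SK-NEP-1 cells, read out by a cell viability assay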
Description: SANGER: Inhibition of human SK-NEP-1 cell growth in a cell viability assay.

SW1088 = format: functional, cell-based, Homo sapiens; settings: Homo sapiens, SW1088;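 note: growth inhibition of human SW1088 cells, read out by a cell viability assay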
Description: SANGER: Inhibition of human SW1088 cell growth in a cell viability assay.

T-24 = format: functional, cell-based, Homo sapiens; settings: Homo sapiens, T-24;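 note: growth inhibition of T-24 cells, read out with a cell viability assay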
Description: SANGER: Inhibition of human T-24 cell growth in a cell viability assay.

T47D = format: functional, cell-based, Homo sapiens; settings: Homo sapiens, T47D;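 note: growth inhibition of human T47D cells, measured with a cell viability assay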
Description: SANGER: Inhibition of human T47D cell growth in a cell viability assay.

A-427 = format: functional, cell-based, Homo sapiens; settings: Homo sapiens, A-427;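 note: growth inhibition of human A-427 cells, read out by a cell viability assay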
Description: SANGER: Inhibition of human A427 cell growth in a cell viability assay.

AU565 = format: functional, cell-based, Homo sapiens; settings: Homo sapiens, AU565;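 note: cell viability assay measuring growth inhibition of human AU565 cells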
Description: SANGER: Inhibition of human AU565 cell growth in a cell viability assay.

BB49-HNC = format: functional, cell-based, Homo sapiens; settings: Homo sapiens, BB49-HNC;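 note: cell viability assay read-out, reported as inhibition of BB49-HNC cell growth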
Description: SANGER: Inhibition of human BB49-HNC cell growth in a cell viability assay.

BEN = format: functional, cell-based, Homo sapiens; settings: Homo sapiens, BEN;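 note: growth inhibition of the BEN cell line, read out with a cell viability assay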
Description: SANGER: Inhibition of human BEN cell growth in a cell viability assay.

BFTC-909 = format: functional, cell-based, Homo sapiens; settings: Homo sapiens, BFTC-909
Description: SANGER: Inhibition of human BFTC-909 cell growth in a cell viability assay.

BPH-1 = format: functional, cell-based, Homo sapiens; settings: Homo sapiens, BPH-1;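 note: cell viability assay measuring growth inhibition of human BPH-1 cells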
Description: SANGER: Inhibition of human BPH-1 cell growth in a cell viability assay.

C8166 = format: functional, cell-based; settings: Homo sapiens;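 note: growth inhibition of human C8166 cells measured by a cell viability assay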
Description: SANGER: Inhibition of human C8166 cell growth in a cell viability assay.

YKG-1 = format: functional, cell-based, Homo sapiens; settings: Homo sapiens, YKG-1;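 note: cell growth inhibition, read out with a viability assay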
Description: SANGER: Inhibition of human YKG-1 cell growth in a cell viability assay.

For `COc1cc([C@@H]2c3cc4c(cc3[C@@H](O[C@@H]3O[C@@H]5CO[C@@H](C)O[C@H]5[C@H](O)[C@H]3O)[C@H]3COC(=O)[C@H]23)OCO4)cc(OC)c1O` [ETOPOSIDE], the IC50 (COLO-792) was > 16000 nM, the IC50 (CP50-MEL-B) was > 16000 nM and the IC50 (CW-2) was > 16000 nM. The IC50 (Ca-Ski) was 2330 nM, the IC50 (Calu-6) was 4060 nM and the IC50 (Capan-2) was > 16000 nM. The IC50 (DOHH-2) was 347 nM, the IC50 (Detroit 562) was 11100 nM and the IC50 (EW-24) was > 16000 nM. The IC50 (HCC1569) was 3580 nM, the IC50 (HCC2218) was > 16000 nM and the IC50 (HCC 2998) was 1260 nM. The IC50 (HD-MY-Z) was 8540 nM, the IC50 (HO-1-N-1) was 2380 nM and the IC50 (HOP-62) was 524 nM. For the same compound, the IC50 (HT-1080) was 109 nM, the IC50 (IGROV-1) was 171 nM and the IC50 (IST-SL1) was > 16000 nM. The IC50 (JAR) was > 16000 nM, the IC50 (KALS-1) was 10300 nM and the IC50 (KINGS-1) was > 16000 nM. The IC50 (KS-1) was 334 nM, the IC50 (KYSE-510) was 566 nM and the IC50 (LB2518-MEL) was > 16000 nM. For the same compound, the IC50 (LS-411N) was 925 nM, the IC50 (LXF-289 cell line) was 2080 nM and the IC50 (MLMA) was 3380 nM. For the same compound, the IC50 (MZ7-mel) was 4300 nM, the IC50 (Mo) was > 16000 nM and the IC50 (NCI-H1395) was > 16000 nM. For the same compound, the IC50 (NCI-H1623) was 14000 nM, the IC50 (NCI-H1651) was > 16000 nM and the IC50 (NCI-H2126) was 10400 nM. The IC50 (NCI-H661) was 4340 nM, the IC50 (SNU-5) was 7920 nM and the IC50 (OE19) was > 16000 nM. The IC50 (PC-3) was > 16000 nM, the IC50 (RCM-1) was > 16000 nM and the IC50 (SK-MEL3) was 10100 nM. The IC50 (SK-NEP-1) was 1900 nM, the IC50 (SW1088) was > 16000 nM and the IC50 (T-24) was > 16000 nM. For the same compound, the IC50 (T47D) was 11700 nM, the IC50 (A-427) was 103 nM and the IC50 (AU565) was 2610 nM. The IC50 (BB49-HNC) was > 16000 nM, the IC50 (BEN) was > 16000 nM and the IC50 (BFTC-909) was 1160 nM. For the same compound, the IC50 (BPH-1) was 943 nM, the IC50 (C8166) was 1680 nM and the IC50 (YKG-1) was 1230 nM.

`C[C@]1(O)C[C@@H](c2nc(-c3ccc4ccc(-c5ccccc5)nc4c3)c3c(N)nccn32)C1` [LINSITINIB] was tested, and the IC50 (COLO-792) was > 2560 nM, the IC50 (CP50-MEL-B) was > 2560 nM and the IC50 (CW-2) was > 2560 nM. For the same compound, the IC50 (Ca-Ski) was > 2560 nM, the IC50 (Calu-6) was > 2560 nM and the IC50 (Capan-2) was > 2560 nM. The IC50 (DOHH-2) was > 2560 nM, the IC50 (Detroit 562) was > 2560 nM and the IC50 (EW-24) was > 2560 nM. The IC50 (HCC1569) was > 2560 nM, the IC50 (HCC2218) was > 2560 nM and the IC50 (HCC 2998) was 883 nM. The IC50 (HD-MY-Z) was > 2560 nM, the IC50 (HO-1-N-1) was > 2560 nM and the IC50 (HOP-62) was > 2560 nM. The IC50 (HT-1080) was > 2560 nM, the IC50 (IGROV-1) was 1150 nM and the IC50 (IST-SL1) was > 2560 nM. The IC50 (JAR) was > 2560 nM, the IC50 (KALS-1) was > 2560 nM and the IC50 (KINGS-1) was > 2560 nM. The IC50 (KS-1) was 38.4 nM, the IC50 (KYSE-510) was > 2560 nM and the IC50 (LB2518-MEL) was > 2560 nM. For the same compound, the IC50 (LS-411N) was > 2560 nM, the IC50 (LXF-289 cell line) was > 2560 nM and the IC50 (MLMA) was > 2560 nM. The IC50 (MZ7-mel) was > 2560 nM, the IC50 (Mo) was > 2560 nM and the IC50 (NCI-H1395) was > 2560 nM. For the same compound, the IC50 (NCI-H1623) was > 2560 nM, the IC50 (NCI-H1651) was > 2560 nM and the IC50 (NCI-H2126) was > 2560 nM. The IC50 (NCI-H661) was > 2560 nM, the IC50 (SNU-5) was > 2560 nM and the IC50 (OE19) was > 2560 nM. For the same compound, the IC50 (PC-3) was > 2560 nM, the IC50 (RCM-1) was > 2560 nM and the IC50 (SK-MEL3) was 1490 nM. The IC50 (SK-NEP-1) was 602 nM, the IC50 (SW1088) was > 2560 nM and the IC50 (T-24) was > 2560 nM. For the same compound, the IC50 (T47D) was > 2560 nM, the IC50 (A-427) was > 2560 nM and the IC50 (AU565) was > 2560 nM. For the same compound, the IC50 (BB49-HNC) was > 2560 nM, the IC50 (BEN) was > 2560 nM and the IC50 (BFTC-909) was > 2560 nM. For the same compound, the IC50 (BPH-1) was > 2560 nM, the IC50 (C8166) was > 2560 nM and the IC50 (YKG-1) was > 2560 nM.

With `CCC1=C[C@@H]2CN(C1)Cc1c([nH]c3ccccc13)[C@@](C(=O)OC)(c1cc3c(cc1OC)N(C)[C@H]1[C@@](O)(C(=O)OC)[C@H](OC(C)=O)[C@]4(CC)C=CCN5CC[C@]31[C@@H]54)C2` [VINORELBINE] the IC50 (COLO-792) was > 64 nM, the IC50 (CP50-MEL-B) was 43.4 nM and the IC50 (CW-2) was > 64 nM. It also gave an IC50 (Ca-Ski) of 19.1 nM, an IC50 (Calu-6) of 5.7 nM and an IC50 (Capan-2) of 30.4 nM. For the same compound, the IC50 (DOHH-2) was 5.04 nM, the IC50 (Detroit 562) was 7.55 nM and the IC50 (EW-24) was > 64 nM. It also gave an IC50 (HCC1569) of 4.93 nM, an IC50 (HCC2218) of 57.1 nM and an IC50 (HCC 2998) of 5.05 nM. It also gave an IC50 (HD-MY-Z) of 29.2 nM, an IC50 (HO-1-N-1) of 6.65 nM and an IC50 (HOP-62) of 1.93 nM. The IC50 (HT-1080) was 2.49 nM, the IC50 (IGROV-1) was 2.2 nM and the IC50 (IST-SL1) was 39.3 nM. For the same compound, the IC50 (JAR) was > 64 nM, the IC50 (KALS-1) was 3.9 nM and the IC50 (KINGS-1) was > 64 nM. The IC50 (KS-1) was 1.47 nM, the IC50 (KYSE-510) was 4.19 nM and the IC50 (LB2518-MEL) was > 64 nM. The IC50 (LS-411N) was 3.17 nM, the IC50 (LXF-289 cell line) was 4.68 nM and the IC50 (MLMA) was 36.9 nM. The IC50 (MZ7-mel) was 10.2 nM, the IC50 (Mo) was > 64 nM and the IC50 (NCI-H1395) was 53.5 nM. It also gave an IC50 (NCI-H1623) of 28.5 nM, an IC50 (NCI-H1651) of 60.6 nM and an IC50 (NCI-H2126) of 29.3 nM. The IC50 (NCI-H661) was 20.4 nM, the IC50 (SNU-5) was 45.8 nM and the IC50 (OE19) was 13.2 nM. For the same compound, the IC50 (PC-3) was > 64 nM, the IC50 (RCM-1) was > 64 nM and the IC50 (SK-MEL3) was 17.3 nM. The IC50 (SK-NEP-1) was 8.99 nM, the IC50 (SW1088) was > 64 nM and the IC50 (T-24) was > 64 nM. The IC50 (T47D) was > 64 nM, the IC50 (A-427) was 3.1 nM and the IC50 (AU565) was 8.19 nM. For the same compound, the IC50 (BB49-HNC) was > 64 nM, the IC50 (BEN) was 58.1 nM and the IC50 (BFTC-909) was 10.8 nM. The IC50 (BPH-1) was 1.9 nM, the IC50 (C8166) was 17.6 nM and the IC50 (YKG-1) was 3.73 nM.
